Data taken from patent US11208433B2, “Peptide for inhibiting skin inflammation and composition for preventing or treating skin inflammation containing the same” (AVIXGEN Inc., priority 2017, dated 2021).

Columns and labels:
histamine = experiment: ELISA analysis of serum histamine in atopic dermatitis animal model; assay type: in vivo, NC/Nga mouse; conditions: day of autopsy (Day 14)
Description: (§1) After the ear auricle of the NC/Nga mouse was shaved with a razor, the epilating agent was applied in an appropriate amount for the complete depilation. After the epilating agent was wiped off, Then, 100 mg of the AD-inducing reagent shown in Table 2 as below was uniformly applied to the ear auricle using a micropipette tip, thereby inducing atopic dermatitis for the first time.
(§2) After shaving with a razor for necessary, 150 μL of a 4% SDS aqueous solution was uniformly applied to the ear auricle using a micropipette, dried with a cold air using a dryer, and air-dried for about 2 to 3 hours. Then, 100 mg of the same AD-inducing reagent was uniformly applied to the ear auricle using a micropipette tip, thereby inducing atopic dermatitis after 2 times. All treatments were carried out twice a week to be 6 times for a total of 3 weeks, thereby producing atopic dermatitis animal model.
(§3) The mice of groups 2 to 5 were obtained by the atopic dermatitis animal model prepared in Experimental Method 3 as described above.
(§4) The experimental substance and the control substance were uniformly applied to the ear auricle using a micropipette tip. From the day of the experimental substance administration (Day 0) to the day of the autopsy (Day 14), they were administered once a day for 2 weeks.
On the day of the autopsy, blood samples were collected from the abdominal vein using a syringe. The serum isolated from the blood was analyzed for IgE and histamine using an ELISA kit.

HeLa cells = experiment: ACP-tetrapeptide cell membrane permeation experiment; assay type: cell-based; conditions: 3, 15 and 30 μM ACP-tetrapeptide-FITC for 3 hours, fluorescence microscopy, FIG. 14
Description: HeLa cells were inoculated in a 12-well plate containing glass at a density of 1×10^5 cells/well and cultured for 24 hours to attach the cells to the glass. Then, HeLa cells were treated with 3 μM ACP-FITC peptide and 3, 15, and 30 μM ACP-tetrapeptide-FITC peptide for 3 hours. After 3 hours, the cells were washed three times with PBS. Then, the cells were fixed with 3.7% formaldehyde for 20 minutes and treated with PBS containing 0.2% Triton X-100 to increase cell permeability. Then, the cells were blocked with 3% BSA for 1 hour, reacted with a tubulin antibody (Santa Cruz Biotechnology, U.S.A.) at room temperature for 2 hours, and washed three times with PBS. Next, the cells were treated with a Cy3-conjugated secondary antibody (Jackson ImmunoResearch, USA) at room temperature for 1 hour, washed twice with PBS, and then stained with 4′,6-diamidino-2-phenylindole (DAPI) for 10 minutes. Finally, the HeLa cell-attached glass was removed and mounted on a sliding glass. The cells were observed under a fluorescence microscope (DMil, Leica, Germany).

IgE = experiment: ELISA analysis of serum IgE in atopic dermatitis animal model; conditions: day of autopsy (Day 14)
[1] = tested on: atopic dermatitis animal model; experiment: Histopathological examination of ear epidermis and dermis (H&E scoring); assay type: in vivo, NC/Nga mouse; conditions: infiltration by inflammatory cells, p<0.05, FIGS. 8 and 9
Description: After the ear auricle of the NC/Nga mouse was shaved with a razor, the epilating agent was applied in an appropriate amount for the complete depilation. After the epilating agent was wiped off, Then, 100 mg of the AD-inducing reagent shown in Table 2 as below was uniformly applied to the ear auricle using a micropipette tip, thereby inducing atopic dermatitis for the first time. After shaving with a razor for necessary, 150 μL of a 4% SDS aqueous solution was uniformly applied to the ear auricle using a micropipette, dried with a cold air using a dryer, and air-dried for about 2 to 3 hours. Then, 100 mg of the same AD-inducing reagent was uniformly applied to the ear auricle using a micropipette tip, thereby inducing atopic dermatitis after 2 times. All treatments were carried out twice a week to be 6 times for a total of 3 weeks, thereby producing atopic dermatitis animal model. The mice of groups 2 to 5 were obtained by the atopic dermatitis animal model prepared in Experimental Method 3 as described above. The experimental substance and the control substance were uniformly applied to the ear auricle using a micropipette tip. From the day of the experimental substance administration (Day 0) to the day of the autopsy (Day 14), they were administered once a day for 2 weeks. On the day of the autopsy, ears were removed for the histopathological examination and fixed in 10% neutral buffered formalin solution. The fixed tissues were subject to the general tissue treatment such as reprofiling, dehydration, paraffin embedding, and dissection, thereby preparing specimens for histopathological examination. Then, hematoxylin and eosin (H & E) and TUNEL assays were performed on histopathologic specimens, and the light microscopy (Olympus BX53, Japan) was used to observe histopathologic changes. In the histopathologic evaluation using hematoxylin and eosin staining slides, in order to compare the degree of the lesion with the induced control group, the most severe lesion was selected, and then the hypertrophy, hyperkeratosis and infiltration by inflammatory cells were evaluated in the epidermis. In the dermis, the infiltration by inflammatory cells was evaluated. Scoring criteria are the same as 0 (no symptoms), 1 (mild), 2 (moderate), and 3 (severe) (Taniguchi Y et al 2003).

[2] = tested on: atopic mouse skin tissues; experiment: Immunohistochemical staining of atopic mouse skin tissue (angiogenic marker, inflammatory cells, keratin); assay type: in vivo, NC/Nga mouse; conditions: atopic mouse skin tissue, also similar to prednisolone treated group
Description: as §1, §2, §3, §4
Atopy mouse skin tissues were immersed in Xylene three times for 5 minutes, 100% ethanol for 2 minutes, 95% ethanol for 2 minutes, 90% ethanol for 2 minutes, 70% ethanol for 2 minutes and D.W. for 2 minutes to remove paraffin and to perform hydration. After washing with PBS, they were treated with 0.2% Triton X-100 to increase cell permeability. After re-washing with PBS, they were reacted with blocking solution, 3% bovine serum albumin, for 1 hour. For inflammatory cells and keratin staining, they were reacted with F4/80 (sc-377009, Santa Cruz) and cytokeratin (NB600-579, NOVUSBIO) antibodies, respectively, at room temperature for 2 hours. After washing with PBS, they were treated with Texas Red (ab6787, Abcam) secondary antibody and reacted at room temperature for 60 minutes. The mounting solution was dropped on the tissue of the slide. Then, the tissue was covered with a cover slide, and the sample was observed under a fluorescence microscope. For analysis of the degree of angiogenesis, the atopic skin tissue was reacted with FITC-conjugated isolectin B4 (L2895, Sigma), a blood vessel marker at room temperature for 2 hours. The mounting solution was dropped on the tissue of the slide. Then, the tissue was covered with a cover slide, and the sample was observed under a fluorescence microscope
The mouse skin tissues stained with the respective markers were photographed using a fluorescence microscope (DMil, Leica, Germany), and fluorescence intensities were quantitatively analyzed using an ImageJ program (NIH, Bethesda, Md., USA).

[3] = tested on: atopic dermatitis animal model; experiment: Ear thickness measurement in atopic dermatitis animal model; assay type: in vivo, NC/Nga mouse; conditions: FIG. 2
Description: After the ear auricle of the NC/Nga mouse was shaved with a razor, the epilating agent was applied in an appropriate amount for the complete depilation. After the epilating agent was wiped off, Then, 100 mg of the AD-inducing reagent shown in Table 2 as below was uniformly applied to the ear auricle using a micropipette tip, thereby inducing atopic dermatitis for the first time. After shaving with a razor for necessary, 150 μL of a 4% SDS aqueous solution was uniformly applied to the ear auricle using a micropipette, dried with a cold air using a dryer, and air-dried for about 2 to 3 hours. Then, 100 mg of the same AD-inducing reagent was uniformly applied to the ear auricle using a micropipette tip, thereby inducing atopic dermatitis after 2 times. All treatments were carried out twice a week to be 6 times for a total of 3 weeks, thereby producing atopic dermatitis animal model. The mice of groups 2 to 5 were obtained by the atopic dermatitis animal model prepared in Experimental Method 3 as described above. The experimental substance and the control substance were uniformly applied to the ear auricle using a micropipette tip. From the day of the experimental substance administration (Day 0) to the day of the autopsy (Day 14), they were administered once a day for 2 weeks. Ear thickness was measured for each individual by calipers, and the ear area was photographed. Ear thickness measurement and photographing were performed once a week on the day of starting the experimental substance administration and thereafter.

## VKCFNCGKEGHTARNCRAPRKKGCWKCGKEGHQMKDCTERLYE (ACP-tetrapeptide) [ACP cell penetrating peptide linked at the N-terminal of the tetrapeptide]
histamine; FIG. 7
  histamine level compared with prednisolone treated group: lower than that of the prednisolone treated group
histamine; p<0.001 or p<0.01, FIG. 7
  histamine level compared with group 2 (induced control): significantly lower
HeLa cells
  cell membrane permeability (transfer into cells): transferred into the cells through ACP in a concentration-dependent manner without aggregation in the cell membrane
IgE; FIG. 7
  IgE level compared with prednisolone treated group: lower than that of the prednisolone treated group
IgE; p<0.001 or p<0.01, FIG. 7
  IgE level compared with group 2 (induced control): significantly lower
  IgE level compared with normal control group: significantly higher
[1]; hypertrophy, hyperkeratosis
  epidermis score level compared with group 2: significantly lower
[1]
  dermis score level compared with group 2: significantly lower
[2]; FIG. 10
  angiogenesis (Isolectin B4 staining): lower than that of the inducted control group
[2]; FIG. 11
  inflammatory cell inflow (F4/80 staining): lower than that of the inducted control group
[2]; FIG. 12
  keratinization and fibrosis (cytokeratin staining): lower than that of the inducted control group
[3]; 7th and 14th day after administration, tetrapeptide 0.622, ACP-tetrapeptide 4.987, prednisolone 50 μg/ear once a day, p<0.001 or p<0.01
  ear thickness compared with induced control group (group 2): significantly thinner
[3]; 14th day after administration, p<0.001
  ear thickness compared with normal control group (group 1): significantly thicker
